Assay results from article PMC6476959, “Novel 3,4-Dihydroisocoumarins Inhibit Human P-gp and BCRP in Multidrug Resistant Tumors and Demonstrate Substrate Inhibition of Yeast Pdr5” (Frontiers in Pharmacology, 2019).

How the values were obtained:
[1] = molecular target: T1, BCRP (Homo sapiens, UniProt Q9UNQ0); assay: BCRP transport assay (Hoechst 33342) in MCF-7/MX cells; type: cell-based
T1 construct: endogenous in cells; host or cells: MCF-7/MX human breast adenocarcinoma cells (mitoxantrone-selected)
T1 sequence (Q9UNQ0 1-655): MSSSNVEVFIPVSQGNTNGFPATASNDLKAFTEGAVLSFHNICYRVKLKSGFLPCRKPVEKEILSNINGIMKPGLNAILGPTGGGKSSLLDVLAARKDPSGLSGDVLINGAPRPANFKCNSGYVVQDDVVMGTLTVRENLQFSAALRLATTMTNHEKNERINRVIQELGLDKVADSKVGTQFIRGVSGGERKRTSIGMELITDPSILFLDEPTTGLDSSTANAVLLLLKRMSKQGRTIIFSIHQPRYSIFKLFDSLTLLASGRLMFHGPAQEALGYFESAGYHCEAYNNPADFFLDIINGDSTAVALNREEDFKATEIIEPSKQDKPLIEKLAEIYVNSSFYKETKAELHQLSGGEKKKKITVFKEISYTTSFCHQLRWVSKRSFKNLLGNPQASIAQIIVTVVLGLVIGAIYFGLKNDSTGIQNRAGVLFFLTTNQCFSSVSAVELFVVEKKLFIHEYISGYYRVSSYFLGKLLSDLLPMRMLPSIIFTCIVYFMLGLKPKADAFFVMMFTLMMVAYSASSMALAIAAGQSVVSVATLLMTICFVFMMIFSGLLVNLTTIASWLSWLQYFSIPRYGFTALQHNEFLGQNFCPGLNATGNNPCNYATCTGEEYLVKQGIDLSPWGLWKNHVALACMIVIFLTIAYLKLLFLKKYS
Description: Breast cancer resistance protein transport activity was determined in the BCRP-expressing MCF-7/MX cell line. Hoechst 33342 was applied as transporter substrate and 1 μM Ko143 as positive control or 0.5% DMSO as negative control and the assay was performed according to the P-gp assay. Fluorescence was measured at an excitation wavelength of 355 nm and emission wavelength of 460 nm. The transport activity of BCRP was analyzed by determining the plateau of the fluorescence-time curve by using non-linear regression (one-phase exponential fit). Normalization of the data to Ko143 (100% inhibition) and DMSO (0% inhibition) was performed.

[2] = test system: H69AR cells; assay: CellTiter-Glo cell viability assay (cytotoxicity), H69AR; type: cell-based; details: Homo sapiens, 48 h, MRP1-expressing, mean ± SEM
Description: (§1) The human lung adenocarcinoma cell line A549 was cultured in DMEM medium supplemented with 10% fetal bovine serum (FBS), 100 U/mL penicillin and 100 μg/mL streptomycin. P-gp-expressing human colon adenocarcinoma cells HCT-15 were cultured in RPMI 1640 medium supplemented with 10% FBS, 100 U/mL penicillin and 100 μg/mL streptomycin. BCRP-expressing MCF-7/MX human breast adenocarcinoma cells were cultured in DMEM medium supplemented with 10% FBS, 100 U/mL penicillin and 100 μg/mL streptomycin. MRP1-expressing H69AR human small cell lung cancer cells were cultured in RPMI 1640 medium (ATCC modification) supplemented with 20% FBS, 100 U/mL penicillin and 100 μg/mL streptomycin. All cancer cell lines employed have been systematically characterized regarding their respective ABC transporter expression profile ([Sachs et al., 2019]).
(§2) Cytotoxic activity of test compounds was analyzed after 48 h using the CellTiter-Glo Luminescent Cell Viability Assay published previously ([Weber et al., 2017]) in 384-well plates with the following cell densities: A549, MCF-7/MX: 2 × 10^3 cells/well; HCT-15: 3 × 10^3 cells/well; H69AR: 5 × 10^3 cells/well. Pipetting was conducted with the CyBi-Well 96-channel simultaneous pipettor (Analytik Jena AG, Jena, Germany). For generation of dose-response curves and calculation of IC50 values, the four-parameter logistic model was applied.

[3] = test system: MCF-7/MX cells; assay: CellTiter-Glo cell viability assay (cytotoxicity), MCF-7/MX; type: cell-based; details: Homo sapiens, MCF7/MX; 48 h, BCRP-expressing, mean ± SEM
Description: as §1, §2

[4] = Solubility observation in transporter assays; type: physicochemical; details: could not be employed at 50 μM
[5] = test system: A549 cells; assay: CellTiter-Glo cell viability assay (cytotoxicity), A549; type: cell-based, human; details: Homo sapiens, A549; 48 h, mean ± SEM
Description: as §1, §2

[6] = molecular target: T2, P-gp (Homo sapiens, UniProt P08183); assay: P-gp transport assay (calcein-AM) in HCT-15 cells; type: cell-based
T2 construct: endogenous in cells; host or cells: HCT-15 human colon adenocarcinoma cells
T2 sequence (P08183 whole entry): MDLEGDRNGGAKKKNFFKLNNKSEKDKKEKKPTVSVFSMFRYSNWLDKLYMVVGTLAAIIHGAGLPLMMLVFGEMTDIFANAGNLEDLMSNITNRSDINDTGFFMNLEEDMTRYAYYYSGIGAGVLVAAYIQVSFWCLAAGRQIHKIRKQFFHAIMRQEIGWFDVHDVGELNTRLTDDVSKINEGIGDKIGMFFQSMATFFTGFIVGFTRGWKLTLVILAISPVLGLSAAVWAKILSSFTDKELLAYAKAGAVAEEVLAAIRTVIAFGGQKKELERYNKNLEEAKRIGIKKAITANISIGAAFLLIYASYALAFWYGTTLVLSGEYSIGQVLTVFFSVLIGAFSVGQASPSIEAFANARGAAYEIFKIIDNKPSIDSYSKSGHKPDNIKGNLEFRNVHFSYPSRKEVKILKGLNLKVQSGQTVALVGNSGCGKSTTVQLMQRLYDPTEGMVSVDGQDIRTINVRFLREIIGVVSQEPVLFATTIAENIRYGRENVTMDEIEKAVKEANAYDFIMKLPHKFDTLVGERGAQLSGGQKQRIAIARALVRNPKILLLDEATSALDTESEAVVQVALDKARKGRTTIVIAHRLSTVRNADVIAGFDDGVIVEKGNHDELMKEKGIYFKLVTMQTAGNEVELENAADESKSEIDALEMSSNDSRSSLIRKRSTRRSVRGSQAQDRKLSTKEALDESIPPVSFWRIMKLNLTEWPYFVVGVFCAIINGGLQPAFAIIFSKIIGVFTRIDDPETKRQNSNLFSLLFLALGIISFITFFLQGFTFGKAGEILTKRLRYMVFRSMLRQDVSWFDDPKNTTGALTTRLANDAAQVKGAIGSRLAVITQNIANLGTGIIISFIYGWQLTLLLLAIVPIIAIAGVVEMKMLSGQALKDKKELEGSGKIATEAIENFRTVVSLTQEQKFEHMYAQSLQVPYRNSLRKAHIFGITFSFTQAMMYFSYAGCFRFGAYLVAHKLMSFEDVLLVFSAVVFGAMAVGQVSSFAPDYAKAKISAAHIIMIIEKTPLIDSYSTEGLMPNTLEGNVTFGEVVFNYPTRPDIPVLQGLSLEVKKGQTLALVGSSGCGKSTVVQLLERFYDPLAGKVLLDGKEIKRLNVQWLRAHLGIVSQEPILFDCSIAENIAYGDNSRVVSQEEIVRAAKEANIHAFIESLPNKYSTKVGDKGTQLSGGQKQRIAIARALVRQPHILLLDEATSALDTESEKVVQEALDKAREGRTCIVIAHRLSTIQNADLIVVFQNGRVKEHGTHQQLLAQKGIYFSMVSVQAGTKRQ
Description: The transport of calcein-AM by P-gp and its modulation by test compounds was analyzed in the P-gp-expressing HCT-15 cell line. 5 × 10^4 cells were seeded in black 96-well plates and incubated at 37°C and 5% CO2 for 24 h. The culture medium was removed and replaced by Hank’s balanced salt solution supplemented with 10 mM HEPES. Test compounds, 2.5 μM PSC833 (positive control) or 0.5% DMSO (negative control) were added in triplicates and incubated for 30 min at 37°C and 5% CO2. The substrate calcein-AM was added (final concentration 0.5 μM) and the fluorescence (excitation 485 nm, emission 520 nm) was measured over 3 h with the Infinite m1000 pro microplate reader (Tecan Group AG, Männedorf, Switzerland) at 37°C. The transport activity of P-gp was analyzed by determining the slope of the linear part of the fluorescence-time curve (0–30 min) using linear regression. Normalization of the data to PSC833 (100% inhibition) and DMSO (0% inhibition) was performed.

[7] = test system: HCT-15 cells; assay: CellTiter-Glo cell viability assay (cytotoxicity), HCT-15; type: cell-based; details: Homo sapiens, 48 h, P-gp expressing, mean ± SEM
Description: as §1, §2

[8] = molecular target: T3, Pdr5 (Saccharomyces cerevisiae, UniProt P33302); assay: Pdr5 ATPase assay (oligomycin-sensitive) in plasma membrane preparations; type: biochemical; details: highest concentrations (10 mM), in comparison to Pdr5 WT in the absence of any compound
T3 construct: effect on (A) the transport activity of Pdr5 WT and (B) their effect on the ATPase activity; made in house; host or cells: S. cerevisiae YRE1001 (pdr1-3 background), isolated plasma membranes
T3 sequence (P33302 whole entry): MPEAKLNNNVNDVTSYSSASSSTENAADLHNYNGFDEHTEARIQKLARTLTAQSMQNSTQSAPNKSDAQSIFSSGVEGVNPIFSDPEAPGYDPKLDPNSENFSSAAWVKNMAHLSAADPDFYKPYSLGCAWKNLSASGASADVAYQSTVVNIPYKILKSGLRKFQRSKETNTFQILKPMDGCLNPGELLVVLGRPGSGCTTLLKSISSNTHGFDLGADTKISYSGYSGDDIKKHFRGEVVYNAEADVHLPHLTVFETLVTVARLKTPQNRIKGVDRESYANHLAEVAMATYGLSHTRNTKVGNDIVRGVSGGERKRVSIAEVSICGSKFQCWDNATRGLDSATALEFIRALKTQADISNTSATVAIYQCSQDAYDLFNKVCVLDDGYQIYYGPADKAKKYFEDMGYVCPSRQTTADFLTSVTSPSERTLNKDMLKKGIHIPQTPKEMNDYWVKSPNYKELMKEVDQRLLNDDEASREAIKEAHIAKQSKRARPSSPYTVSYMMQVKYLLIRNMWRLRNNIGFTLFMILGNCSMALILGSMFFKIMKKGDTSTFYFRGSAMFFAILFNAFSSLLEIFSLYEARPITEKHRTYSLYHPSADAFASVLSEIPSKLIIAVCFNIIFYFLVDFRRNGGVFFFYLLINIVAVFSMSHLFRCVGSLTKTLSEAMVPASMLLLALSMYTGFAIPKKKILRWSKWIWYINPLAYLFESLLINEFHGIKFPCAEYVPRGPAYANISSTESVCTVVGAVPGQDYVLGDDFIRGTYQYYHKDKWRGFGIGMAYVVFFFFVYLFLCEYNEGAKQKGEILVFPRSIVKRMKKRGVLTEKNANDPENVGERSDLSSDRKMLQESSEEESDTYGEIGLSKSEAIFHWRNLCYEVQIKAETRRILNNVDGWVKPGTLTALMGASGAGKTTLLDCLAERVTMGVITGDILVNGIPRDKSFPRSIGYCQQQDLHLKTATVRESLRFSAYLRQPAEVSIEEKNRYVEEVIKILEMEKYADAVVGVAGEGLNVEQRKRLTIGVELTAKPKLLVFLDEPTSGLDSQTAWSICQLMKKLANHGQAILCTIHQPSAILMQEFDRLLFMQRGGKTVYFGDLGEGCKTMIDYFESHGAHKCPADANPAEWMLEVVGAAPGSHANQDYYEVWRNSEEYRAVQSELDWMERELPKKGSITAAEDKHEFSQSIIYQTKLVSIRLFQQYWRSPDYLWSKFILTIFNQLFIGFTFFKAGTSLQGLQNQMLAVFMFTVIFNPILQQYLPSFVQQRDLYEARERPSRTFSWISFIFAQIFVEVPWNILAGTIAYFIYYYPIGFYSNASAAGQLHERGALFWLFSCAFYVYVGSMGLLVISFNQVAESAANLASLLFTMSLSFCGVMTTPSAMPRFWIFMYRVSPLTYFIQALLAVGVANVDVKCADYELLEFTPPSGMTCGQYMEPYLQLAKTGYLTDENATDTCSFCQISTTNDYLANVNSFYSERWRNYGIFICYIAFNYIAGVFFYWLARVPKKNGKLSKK
Description: Saccharomyces cerevisiae cells expressing Pdr5 WT or the E1036Q (EQ) mutant were cultured to an OD600 of 1.5 in YPD-media at 25°C. The nitrogen source was replenished by addition of a 10th volume of 5x YP (50 g/l yeast extract, 100 g/l peptone). The cells were grown to an OD of 3.5 and harvested (5000 ×g at 4°C for 15 min). The isolation of Pdr5 containing PMs was performed as described ([Kolaczkowski et al., 1996]; [Ernst et al., 2008]).
Oligomycin (OM)-sensitive ATPase activity was measured from 0.8 μg PM containing Pdr5 incubated with 2 mM ATP, 5 mM MgCl2 in 270 mM TRIS-glycine buffer (pH 9.5) and 2.5 μl of the test compounds or DMSO as a control in a total volume of 100 μl. To reduce the background activities, 0.2 mM ammonium molybdate, 10 mM NaN3 and 50 mM KNO3, respectively, were added ([Dufour et al., 1988]; [Goffeau and Dufour, 1988]). In a second assay, OM (20 μg/ml) was added to an otherwise identical setup. After incubation at 30°C for 20 min, the reaction was stopped by adding 25 μl of the reaction to 175 μl 40 mM H2SO4. The amount of released inorganic phosphate was determined by a colometric assay in 96-well plates ([Goffeau and Dufour, 1988]; [Decottignies et al., 1994]; [Wada et al., 2002]). The difference of both assays ( ± OM) corresponds to the specific ATPase activity of Pdr5 ([Ernst et al., 2008]).

O=c1oc2c(O)c(O)cc3c(=O)oc4c(O)c(O)cc1c4c23 [Ellagic acid, ellagic acid]
Inhibition of BCRP (in words) [1]: did not display any inhibitory activity | IC50 [2]: > 50 µM | IC50 [3]: > 50 µM | Solubility (in words) [4]: low solubility | IC50 [5]: > 50 µM | Inhibition of P-gp (in words) [6]: did not display any inhibitory activity | IC50 [7]: > 50 µM | ATPase activity of Pdr5 WT inhibited to (initial screen) [8]: 56% | ATPase activity of Pdr5 WT inhibited to (initial screen) ([8]; listed as ellagic acid): 50%
